Reference: patent US20170150719A1, “FUNGICIDAL PYRAZOLES AND THEIR MIXTURES” (E I DU PONT DE NEMOURS AND COMPANY, priority 2010, published 2017)
Marks after values point to notes of the source that are not given here.

Tests used:
[1] = test system: Puccinia recondita f. sp. tritici; assay: Test G: wheat leaf rust, spray after inoculation (curative) on wheat seedlings, visual disease rating; format: in vivo; conditions: for Test G rating (% disease control): spray after inoculation, rating without asterisk; for Test G rating (% disease control) / pest or weed control at 200 µg/mL / Test G rating (disease control): 100 = 100% disease control; for pest or weed control at 200 µg/mL / Test G rating (disease control): 0 = no disease control
Description: (§1) A hyphen (-) indicates no test results.

[2] = test system: Blumeria graminis f. sp. tritici; assay: Test I: wheat powdery mildew, preventive spray on wheat seedlings, visual disease rating; conditions: for Test I rating (% disease control): preventive spray, rating without asterisk; for Test I rating (% disease control) / pest or weed control at 200 µg/mL / Test I rating (disease control): 100 = 100% disease control; for pest or weed control at 200 µg/mL: Blumeria graminis, in Triticum aestivum, read-out: Test I rating (disease control), wheat powdery mildew; for pest or weed control at 200 µg/mL / Test I rating (disease control): 0 = no disease control relative to the controls
Description: General protocol for preparing test suspensions for Tests A-I: the test compounds were first dissolved in acetone in an amount equal to 3% of the final volume and then suspended at the desired concentration (in ppm) in acetone and purified water (50/50 mix by volume) containing 250 ppm of the surfactant Trem® 014 (polyhydric alcohol esters). The resulting test suspensions were then used in Tests A-I. Each test was conducted in triplicate, and the results were averaged. Spraying a 200 ppm test suspension to the point of run-off on the test plants was the equivalent of a rate of about 800 g/ha. Unless otherwise indicated, the rating values indicate a 200 ppm test suspension was used. (An asterisk “*” next to the rating value indicates a 40 ppm test suspension was used.)
The test suspension was sprayed to the point of run-off on wheat seedlings. The following day the seedlings were inoculated with a spore dust of Blumeria graminis f. sp. tritici (also known as Erysiphe graminis f. sp. tritici, the causal agent of wheat powdery mildew) and incubated in a growth chamber at 20° C. for 8 days, after which time visual disease ratings were made.

[3] = test system: Puccinia recondita f. sp. tritici; assay: Test H: wheat leaf rust, preventive spray on wheat seedlings, visual disease rating; conditions: for Test H rating (% disease control): preventive spray, rating without asterisk; for Test H rating (% disease control) / pest or weed control at 200 µg/mL / Test H rating (disease control): 100 = 100% disease control; for pest or weed control at 200 µg/mL: read-out: Test H rating (disease control), wheat leaf rust, sprayed the day before inoculation; for pest or weed control at 200 µg/mL / Test H rating (disease control): 0 = no disease control; for Test H rating (disease control): sprayed the day before inoculation
Alternaria solani = assay: Test B: tomato early blight, preventive spray on tomato seedlings, visual disease rating; conditions: for Test B rating (% disease control): preventive spray, rating without asterisk; for Test B rating (% disease control) / Test B rating (disease control): 100 = 100% disease control; for pest or weed control at 200 µg/mL: Alternaria solani, in Solanum lycopersicum, read-out: Test B rating (disease control); for Test B rating (disease control): 0 = no disease control relative to the controls
Botrytis cinerea = assay: Test A: tomato Botrytis, preventive spray on tomato seedlings, visual disease rating; conditions: for Test A rating (% disease control): preventive spray, 0 = no control relative to controls, rating without asterisk; for Test A rating (% disease control) / pest or weed control at 200 µg/mL / Test A rating (disease control): 100 = 100% disease control; for pest or weed control at 200 µg/mL: Botrytis cinerea, in Solanum lycopersicum, read-out: Test A rating (disease control), tomato Botrytis; for pest or weed control at 200 µg/mL / Test A rating (disease control): 0 = no disease control relative to the controls
Septoria nodorum = assay: Test E: Septoria glume blotch, preventive spray on wheat seedlings, visual disease rating; conditions: for Test E rating (% disease control): Septoria glume blotch on wheat, preventive spray, rating without asterisk; for Test E rating (% disease control) / pest or weed control at 200 µg/mL / Test E rating (disease control): 100 = 100% disease control; for pest or weed control at 200 µg/mL: Parastagonospora nodorum, in Triticum aestivum, read-out: Test E rating (disease control), Septoria glume blotch; for pest or weed control at 200 µg/mL / Test E rating (disease control): 0 = no disease control relative to the controls
Septoria tritici = assay: Test F: wheat leaf blotch, preventive spray on wheat seedlings, visual disease rating; format: in vivo; parameters: Test F rating (disease control), value marked *: concentration or dose not given beside the values; conditions: for Test F rating (% disease control): preventive spray, rating without asterisk; for Test F rating (% disease control) / Test F rating (disease control) / pest or weed control at 200 µg/mL: 100 = 100% disease control; for Test F rating (disease control), value marked *: rating marked with asterisk (*), other test condition, not explained in the text shown; for Test F rating (disease control) / pest or weed control at 200 µg/mL: 0 = no disease control relative to the controls; for pest or weed control at 200 µg/mL: Zymoseptoria tritici
Description: as §1

| Compound | pest or weed control at 200 µg/mL ([1]; sprayed after inoculation) [%] | pest or weed control at 200 µg/mL [2] [%] | pest or weed control at 200 µg/mL [3] [%] | pest or weed control at 200 µg/mL (Alternaria solani) [%] | pest or weed control at 200 µg/mL (Botrytis cinerea) [%] | pest or weed control at 200 µg/mL (Septoria nodorum) [%] | Test G rating (disease control) ([1]; sprayed after inoculation) [%] | Test I rating (disease control) ([2]; wheat powdery mildew) [%] | Test H rating (disease control) ([3]; wheat leaf rust) [%] | Test B rating (disease control) (Alternaria solani; tomato early blight) [%] | Test A rating (disease control) (Botrytis cinerea; tomato Botrytis) [%] | Test E rating (disease control) (Septoria nodorum; Septoria glume blotch) [%] | Test F rating (disease control) (Septoria tritici) [%] | pest or weed control at 200 µg/mL (Septoria tritici) [%] | also measured |
| --- | --- | --- | --- | --- | --- | --- | --- | --- | --- | --- | --- | --- | --- | --- | --- |
| Cc1nn(C)c(Nc2c(Cl)cc(F)cc2Cl)c1-c1ccc(Cl)cc1F [compound 227] |  |  |  |  |  |  |  |  |  |  |  |  |  |  | Test G rating (% disease control) [1]: 0%; Test I rating (% disease control) ([2]; wheat powdery mildew): 96%; Test H rating (% disease control) ([3]; wheat leaf rust): 95%; Test B rating (% disease control) (Alternaria solani; tomato early blight): 0%; Test A rating (% disease control) (Botrytis cinerea; tomato Botrytis): 0%; Test E rating (% disease control) (Septoria nodorum): 0%; Test F rating (% disease control) (Septoria tritici): 100% |
| Cc1nn(C)c(Nc2c(F)cc(Br)cc2F)c1-c1ccc(F)cc1Br [compound 163] |  |  |  |  |  |  |  |  |  |  |  |  |  |  | Test G rating (disease control), value marked * ([1]; sprayed after inoculation, rating marked with asterisk (*), not explained in the text shown): 91* %; Test I rating (disease control), value marked * ([2]; wheat powdery mildew, rating marked with asterisk (*), not explained in the text shown): 100* %; Test H rating (disease control), value marked * ([3]; wheat leaf rust, preventive, rating marked with asterisk (*), not explained in the text shown): 100* %; Test B rating (disease control), value marked * (Alternaria solani; tomato early blight, rating marked with asterisk (*), other test condition, not explained in the text shown): 77* %; Test A rating (disease control), value marked * (Botrytis cinerea; tomato Botrytis, rating marked with asterisk (*), other test condition, not explained in the text shown): 100* %; Test E rating (disease control), value marked * (Septoria nodorum; Septoria glume blotch, rating marked with asterisk (*), other test condition, not explained in the text shown): 60* %; Test F rating (disease control), value marked * (Septoria tritici): 100* % |
| Cc1nn(C)c(Oc2ccc(C#N)cc2F)c1-c1ccc(F)cc1Br [Compound 79, 4-[[4-(2-bromo-4-fluorophenyl)-1,3-dimethyl-1H-pyrazol-5-yl]oxy]-3-fluorobenzonitrile] | 28 | 100 | 100 | 99 | 99 | 100 |  |  |  |  |  |  |  |  | Test F rating (disease control), value marked * (Septoria tritici): 100* % |
| Cc1nn(C)c(Nc2ccc(Br)cc2F)c1-c1ccc(F)cc1F [compound 154] |  |  |  |  |  |  | 68 | 99 | 98 | 9 | 100 | 0 | 100 |  |  |
| Cc1nn(C)c(Nc2c(F)cc(Cl)cc2F)c1-c1ccc(F)cc1F [Compound 126, N-(4-chloro-2,6-difluorophenyl)-4-(2,4-difluorophenyl)-1,3-dimethyl-1H-pyrazol-5-amine] | 0 | 100 | 99 | 86 | 100 | 87 |  |  |  |  |  |  |  | 100 |  |
| COc1cc(F)c(Nc2c(-c3c(F)cc(C#N)cc3F)c(C)nn2C)c(F)c1 [compound 36] |  |  |  |  |  |  | 0 | 0 | 41 | 0 | 99 | 0 | 99 |  |  |
| Cc1nn(C)c(Nc2ccc(Br)cc2Br)c1-c1ccc(F)cc1F [compound 184] |  |  |  |  |  |  |  |  |  |  |  |  |  |  | Test G rating (% disease control) [1]: 0%; Test I rating (% disease control) ([2]; wheat powdery mildew): 100%; Test H rating (% disease control) ([3]; wheat leaf rust): 98%; Test B rating (% disease control) (Alternaria solani; tomato early blight): 58%; Test A rating (% disease control) (Botrytis cinerea; tomato Botrytis): 100%; Test E rating (% disease control) (Septoria nodorum): 60%; Test F rating (% disease control) (Septoria tritici): 100% |
| Cc1nn(C)c(Nc2ccc(F)cc2I)c1-c1ccc(F)cc1F [compound 175] |  |  |  |  |  |  | 41 | 100 | 100 | 97 | 100 | 73 | 100 |  |  |
| Cc1nn(C)c(Nc2c(F)cc(Cl)cc2F)c1-c1ccc(C#N)cc1Cl [Compound 111, 3-chloro-4-[5-[(4-chloro-2,6-difluorophenyl)amino]-1,3-dimethyl-1H-pyrazol-4-yl]benzonitrile] | 94 | 99 | 100 | 97 | 100 | 95 |  |  |  |  |  |  |  | 100 |  |
| Cc1nn(C)c(Nc2ccc(Cl)cc2F)c1-c1ccc(F)cc1F [compound 160] |  |  |  |  |  |  | 0 | 100 | 99 | 99 | 100 | 0 | 100 |  |  |
| Cc1nn(C)c(Nc2c(Cl)cc(Cl)cc2I)c1-c1ccc(F)cc1Cl [compound 197] |  |  |  |  |  |  |  |  |  |  |  |  |  |  | Test G rating (% disease control) [1]: 9%; Test I rating (% disease control) ([2]; wheat powdery mildew): 94%; Test H rating (% disease control) ([3]; wheat leaf rust): 97%; Test B rating (% disease control) (Alternaria solani; tomato early blight): 77%; Test A rating (% disease control) (Botrytis cinerea; tomato Botrytis): 100%; Test E rating (% disease control) (Septoria nodorum): 0%; Test F rating (% disease control) (Septoria tritici): 100% |
| Cc1nn(C)c(Oc2ccc(C#N)cc2Br)c1-c1ccc(F)cc1F [Compound 139, 3-bromo-4-[[4-(2,4-difluorophenyl)-1,3-dimethyl-1H-pyrazol-5-yl]oxy]benzonitrile] | 9 | 0 | 89 | 0 | 82 | 0 |  |  |  |  |  |  |  | 100 |  |
| COc1ccc(Nc2c(-c3c(F)cccc3F)c(C)nn2C)c(Cl)c1 [compound 60] |  |  |  |  |  |  | 18 | 99 | 97 | 97 | 99 | 20 | 100 |  |  |
| CCOc1ccc(-c2c(C)nn(C)c2Nc2c(F)cc(F)cc2Cl)c(Cl)c1 [compound 206] |  |  |  |  |  |  |  |  |  |  |  |  |  |  | Test G rating (% disease control) [1]: 0%; Test I rating (% disease control) ([2]; wheat powdery mildew): 100%; Test H rating (% disease control) ([3]; wheat leaf rust): 99%; Test B rating (% disease control) (Alternaria solani; tomato early blight): 100%; Test A rating (% disease control) (Botrytis cinerea; tomato Botrytis): 99%; Test E rating (% disease control) (Septoria nodorum): 99%; Test F rating (% disease control) (Septoria tritici): 100% |
| Cc1nn(C)c(Oc2ccc(C#N)cc2Cl)c1-c1ccc(F)cc1Cl [Compound 37, 3-chloro-4-[[4-(2-chloro-4-fluorophenyl)-1,3-dimethyl-1H-pyrazol-5-yl]oxy]benzonitrile] | 69 | 100 | 99 | 86 | 100 | 100 |  |  |  |  |  |  |  | 100 |  |
| Cc1nn(C)c(Nc2c(F)cccc2F)c1-c1ccc(F)cc1F [compound 71] |  |  |  |  |  |  | 0 | 100 | 99 | 99 | 99 | 96 | 100 |  |  |
| Cc1nn(C)c(Oc2ccc(C#N)cc2Cl)c1-c1c(F)cc(F)cc1F [compound 28] |  |  |  |  |  |  | 26 | 99 | 99 | 17 | 100 | 69 | 100 |  |  |
| Cc1nn(C)c(Nc2c(F)cccc2F)c1-c1ccc(F)cc1Cl [Compound 46, 4-(2-chloro-4-fluorophenyl)-N-(2,6-difluorophenyl)-1,3-dimethyl-1H-pyrazol-5-amine] | 0 | 100 | 99 | 100 | 100 | 87 |  |  |  |  |  |  |  | 100 |  |
| Cc1nn(C)c(Nc2ccc(F)cc2Br)c1-c1ccc(F)cc1F [Compound 118, N-(2-bromo-4-fluorophenyl)-4-(2,4-difluorophenyl)-1,3-dimethyl-1H-pyrazol-5-amine] | 75 | 100 | 97 | 93 | 100 | 69 |  |  |  |  |  |  |  | 100 |  |
